Test system: streptozotocin-induced diabetic rats
Assay: Effect of formulations on serum glucose level in diabetic rat model
Format: in vivo, male albino Wistar rats
Conditions: S.C., 1 u/kg

Insulin solution: Insulin solution, pH 3, given subcutaneously at 1 u/kg as reference
% Decrease in serum glucose level After 1 hr (1 hr): 76.62 ± 1.08%
% Decrease in serum glucose level After 2 hr (2 hr): 83.26 ± 2.56%
% Decrease in serum glucose level After 3 hr (3 hr): 66.75 ± 5.39%
% Decrease in serum glucose level After 5 hr (5 hr): 38.26 ± 3.60%

Source: US20080241260A1, “Compositions for Enhanced Absorption of Biologically Active Agents” (priority 2005, published 2008)
